According to patent publication US12397058B2, “Metabolically stable prodrugs” (TSRL, Inc., priority 2018, dated 2025):
Like-named read-outs stand apart in the source and are kept apart here.

Experiments:
HSV1 E377 = experiment: microbe, parasite or virus in culture; format: cell-based, Herpes Simplex Virus 1
Description: (§1) Screening Assays for HSV-1, HSV-2, CMV, and VZV
(§2) Cells. Human foreskin fibroblast (HFF) cells were prepared from human foreskin tissue. The tissue was incubated at 4° C. for 4 h in Clinical Medium and then placed in phosphate buffered saline (PBS) to remove the red blood cells, and resuspended in trypsin/EDTA solution. The tissue suspension was incubated at 37° C. and gently agitated to disperse the cells, which were collected by centrifugation. Cells were resuspended in 4 ml Clinical Medium and placed in a flask and incubated at 37° C. in a humidified CO2 incubator for 24 h. The media was then replaced with fresh Clinical Medium and the cell growth was monitored daily until a confluent monolayer has formed. The HFF cells were then expanded through serial passages in standard growth medium of MEM with Earl's salts supplemented with 10% FBS and antibiotics. The cells were passaged routinely and used for assays at or below passage 10.
(§3) Primary Cytopathic Effect (CPE) Reduction Assay. Low passage (3-10) HFF cells were trypsinized, counted, and seeded into 96 well tissue culture plates in 0.1 ml of MEM supplemented with 10% FBS. The cells were then incubated for 24 h at 37° C. The media was then removed and 100 μl of MEM containing 2% FBS was added to all but the first row. In the first row, 125 μl of media containing the experimental drug was added in triplicate wells. Media alone was added to both cell and virus control wells. The drug in the first row of wells was then diluted serially 1:5 throughout the remaining. The plates were then incubated for 60 min and 100 μl of a virus suspension was added to each well, excluding cell control wells which received 100 μl of MEM. The plates were then incubated at 37° C. in a CO2 incubator for three days for HSV-1 and HSV-2, 10 days for VZV, or 14 d for CMV. After the incubation period, media was aspirated and the cells stained with crystal violet in formalin for 4 h. The stain was then removed and the plates were rinsed until all excess stain was removed. The plates were allowed to dry for 24 h and the amount of CPE in each row determined using a BioTek Multiplate Autoreader. EC50 and CC50 values were determined by comparing drug treated and untreated cells using a computer program.

HSV2 G = experiment: Primary CPE reduction assay in HFF cells, HSV2 G; format: cell-based, Herpes Simplex Virus 2
Description: as §1, §2, §3

hCMV1 AD169 = experiment: Primary CPE reduction assay in HFF cells, hCMV AD169; format: cell-based, human Cytomegalovirus
Description: as §1, §2, §3

hCMV2 GDGRK17 = experiment: Primary CPE reduction assay in HFF cells, hCMV GDGRK17; format: cell-based, human Cytomegalovirus; conditions: for EC50: Human betaherpesvirus 5, HFF, read-out: EC50 (50% reduction in the Cytopathic Effect of the virus); for TI (therapeutic index derived from EC50/CC50): hCMV2 GDGRK17, HFF cells
Description: as §1, §2, §3

mCMV Smith = experiment: Primary CPE reduction assay, mCMV Smith; format: cell-based, murine Cytomegalovirus; conditions: for EC50: Murid betaherpesvirus 1, read-out: EC50 (50% reduction in the Cytopathic Effect of the virus)
VZV Ellen = experiment: microbe, parasite or virus in culture; format: cell-based, Vericella Zoster Virus
Description: as §1, §2, §3

[1] = tested on: Human Cytomegalovirus Strain AD169; experiment: Additional study versus Human Cytomegalovirus Strain AD169 in HFF cells (procedures of US 2011/0263535 A1); format: cell-based
Description: Additional studies in HFF cells were performed using the procedures as outlined in US Patent Application Publication No: 2011/0263535 A1 with compounds of 120, 121, and 122. Each of the compounds were tested versus Human Cytomegalovirus Strain AD169 in HFF cells using ganciclovir as a comparator.

HSV1 strain DM2.1 = experiment: Primary CPE reduction assay in HFF cells, HSV1 strain DM2.1; format: cell-based, Herpes Simplex Virus 1
Description: as §1, §2
Primary Cytopathic Effect (CPE) Reduction Assay. Low passage (3-10) HFF cells were trypsinized, counted, and seeded into 96 well tissue culture plates in 0.1 ml of MEM supplemented with 10% FBS. […] The plates were allowed to dry for 24 h and the amount of CPE in each row determined using a BioTek Multiplate Autoreader. EC50 and CC50 values were determined by comparing drug treated and untreated cells using a computer program.

[2] = Human alphaherpesvirus 1, read-out: EC50 (50% reduction in the Cytopathic Effect of the virus), HSV1 E377, HFF cells
[3] = Human alphaherpesvirus 2, read-out: EC50 (50% reduction in the Cytopathic Effect of the virus), HSV2 G, HFF cells
[4] = Human betaherpesvirus 5, read-out: EC50 (50% reduction in the Cytopathic Effect of the virus), hCMV1 AD169, HFF cells
[5] = Human alphaherpesvirus 1, HFF, read-out: EC50 (50% reduction in the Cytopathic Effect of the virus)
[6] = Human betaherpesvirus 5, AD169, HFF, read-out: EC50 (50% reduction in the Cytopathic Effect of the virus)
[7] = Human alphaherpesvirus 2, HFF, read-out: EC50 (50% reduction in the Cytopathic Effect of the virus)
[8] = Human Cytomegalovirus Strain AD169 in HFF cells
[9] = Human betaherpesvirus 5, AD169, HFF
[10] = Human alphaherpesvirus 3, HFF, read-out: EC50 (50% reduction in the Cytopathic Effect of the virus)

SMILES	EC50 (HSV1 E377; [2]) [nM]	TI (therapeutic index derived from EC50/CC50) (HSV1 E377; HSV1 E377, HFF cells)	EC50 (hCMV1 AD169; [4]) [nM]	TI (therapeutic index derived from EC50/CC50) (hCMV1 AD169; hCMV1 AD169, HFF cells)	EC50 (hCMV2 GDGRK17) [nM]	TI (therapeutic index derived from EC50/CC50) (hCMV2 GDGRK17)	TI (therapeutic index derived from CC50/EC50) (HSV2 G; HSV2 G, HFF cells)	TI (therapeutic index derived from EC50/CC50) (mCMV Smith; mCMV Smith)	TI (therapeutic index derived from EC50/CC50) (VZV Ellen; VZV Ellen, HFF cells)	EC50 (HSV1 E377; [5]) [nM]	EC50 (hCMV1 AD169; [6]) [nM]	EC50 (HSV2 G; [7]) [nM]	EC50 (mCMV Smith) [nM]	Therapeutic index EC90/HFF Cytotoxicity 50% [1, 8]	EC90 [1, 9] [nM]	EC50 (VZV Ellen; [10]) [nM]	further results
Nc1nc2c(ncn2COCCO)c(=O)[nH]1 [Acyclovir, reference compound]	960	–	–	–	–	–	–	–	–	–	–	–	–	–	–	–	EC50 (HSV2 G; [3]): 380 nM
CC1(CCCCCCCCCCCCS(=O)(=O)CCCOP(=O)(O)CO[C@H](CO)Cn2cnc(N)cc2=O)COC1 [Compound 110, Ammonium 3-((12-(3-methyloxetan-3-yl)dodecyl)sulfonyl)propyl Hydrogen ((((S)-1-(4-amino-6-oxopyrimidin-1(6H)-yl)-3-hydroxypropan-2-yl)oxy)methyl)phosphonate]	160	>313	10	184	< 0.3	>3125	>1250	2213	225	–	–	–	–	–	–	–	EC50 (HSV2 G; [3]): 40 nM; EC50 (mCMV Smith; mCMV Smith): < 0.3 nM; EC50 (VZV Ellen; Human alphaherpesvirus 3, read-out: EC50 (50% reduction in the Cytopathic Effect of the virus), VZV Ellen, HFF cells): 10 nM
CCOC(=O)P(=O)(OCCCS(=O)(=O)CCCCC1CCC1)OCCCS(=O)(=O)CCCCC1CCC1 [Compound 119, Ethyl (bis(3-((4-cyclobutylbutyl)sulfonyl)propoxy)phosphoryl)formate]	–	–	> 30000	<3	–	–	–	–	–	–	–	–	–	–	–	–	–
N.Nc1ccn(C[C@@H](CO)OCP(=O)(O)OCCCS(=O)(=O)CCCCCCCCCCC2CCC2)c(=O)n1 [Compound 120, Ammonium 3-((10-cyclobutyldecyl)sulfonyl)propyl hydrogen ((((S)-1-(4-amino-2-oxopyrimidin-1(2H)-yl)-3-hydroxypropan-2-yl)oxy)methyl)phosphonate]	–	149	–	74	< 0.3	>2772	>3950	>3125	25	70	8	10	< 0.3	>37	< 20	20	–
N.Nc1ccn(C[C@@H](CO)OCP(=O)(O)OCCCS(=O)(=O)CCCCCCCCCCCCC2CCC2)c(=O)n1 [Compound 121, Ammonium 3-((12-cyclobutyldodecyl)sulfonyl)propyl hydrogen ((((S)-1-(4-amino-2-oxopyrimidin-1(2H)-yl)-3-hydroxypropan-2-yl)oxy)methyl)phosphonate]	–	1159	–	>19	< 0.3	>2753	498	>3125	23	10	< 10	10	< 0.3	>15	< 20	10	–
N.Nc1ccn(C[C@@H](CO)OCP(=O)(O)OCCCS(=O)(=O)CCCCCCCCCCCCCC2CCC2)c(=O)n1 [Compound 122, Ammonium 3-((13-cyclobutyltridecyl)sulfonyl)propyl hydrogen ((((S)-1-(4-amino-2-oxopyrimidin-1(2H)-yl)-3-hydroxypropan-2-yl)oxy)methyl)phosphonate]	–	469	–	>19	< 0.3	>2209	>14	>3125	31	20	< 10	140	< 0.3	>13	< 20	7	–
N.Nc1ccn(C[C@@H](CO)OCP(=O)(O)OCCCS(=O)(=O)CCCCCCCCCCCCCCC2CCC2)c(=O)n1 [Compound 123, Ammonium 3-((14-cyclobutyltetradecyl)sulfonyl)propyl (S)-(((1-(4-amino-2-oxopyrimidin-1(2H)-yl)-3-hydroxypropan-2-yl)oxy)methyl)phosphonate]	–	–	–	>5	–	–	–	–	–	–	< 50	–	–	–	–	–	TI (therapeutic index derived from EC50/CC50) (HSV1 strain DM2.1; HSV1 strain DM2.1 (footnote a), HFF cells): >142^a; EC50 (HSV1 strain DM2.1; [5]): < 50 nM
CCOC(=O)P(=O)(OCCCS(=O)(=O)CCCCCCCC1(C)COC1)OCCCS(=O)(=O)CCCCCCCC1(C)COC1 [Compound 124, Ethyl (bis(3-((7-(3-methyloxetan-3-yl)heptyl)sulfonyl)-propoxy)phosphoryl)formate]	> 150000	1	> 150000	1	–	–	–	–	–	–	–	–	–	–	–	–	–
CCCCCCCCCCCCCCCCCCS(=O)(=O)CCCOP(=O)(OCCCS(=O)(=O)CCCCCCCCCCCCCCCCCC)C(=O)OCC [Compound 125, Ethyl (bis(3-(octadecylsulfonyl)propoxy)phosphoryl)formate]	–	–	132000	>1	–	–	–	–	–	–	–	–	–	–	–	–	–
Nc1nc(O)c2ncn(COC(CO)CO)c2n1 [Ganciclovir, reference compound]	–	–	1630	>92	150	>1030	–	>882	–	–	–	–	–	1	–	–	EC50 (mCMV Smith; mCMV Smith): 170 nM; EC90 ([1]; Human betaherpesvirus 5, Human Cytomegalovirus Strain AD169 in HFF cells, read-out: EC90): > 150000 nM
